For this assay, the target named is T1, FlK (fluoroacetyl-CoA thioesterase) (Streptantibioticus cattleyicolor, UniProt Q1EMV2).
T1 sequence (Q1EMV2 1-139): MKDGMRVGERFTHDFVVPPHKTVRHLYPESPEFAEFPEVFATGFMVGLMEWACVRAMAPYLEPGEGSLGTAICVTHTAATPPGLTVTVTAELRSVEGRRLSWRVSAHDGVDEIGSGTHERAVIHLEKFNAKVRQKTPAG
Nature of the assay: pre-steady-state rapid chemical quench, HPLC of CoA release. In kind it is biochemical. The note with it: Bis-Tris 100 mM pH 6.0; covalent acyl-enzyme on Glu 50.

Regarding `CC(C)(COP(=O)(O)OP(=O)(O)OC[C@H]1O[C@@H](n2cnc3c(N)ncnc32)[C@H](O)[C@@H]1OP(=O)(O)O)[C@@H](O)C(=O)NCCC(=O)NCCSC(=O)CF` [fluoroacetyl-CoA], the “pre-steady-state rapid chemical quench, HPLC of CoA release” value is “we observed a burst phase of product formation consistent with enzyme acylation”.

For the origin of these results see publication PMC3985765 (Biochemistry, 2014).
